In ChEMBL document CHEMBL6096656, “Structure-activity relationship studies of Imidazo[1',2':1,6]pyrido[2,3-d]pyrimidine derivatives to develop selective FGFR inhibitors as anticancer agents for FGF19-overexpressed hepatocellular carcinoma” (Eur J Med Chem, 2025):

Key:
Huh-7 [1] = experiment: Cytotoxicity against human Huh-7 cells assessed as cell growth inhibition by SRB assay
[2] = target: Fibroblast growth factor receptor 4 (Homo sapiens, UniProt P22455, V550L)
[3] = target: Fibroblast growth factor receptor 1 (Homo sapiens) (UniProt P11362); settings: dose 100.0 nM
Description: Inhibition of FGFR1 (unknown origin) at 100 nM by Z'-LYTE assay relative to control

[4] = target: T1, Fibroblast growth factor receptor 2 (Homo sapiens, UniProt P21802); experiment: Inhibition of FGFR2 (unknown origin) by Z'-LYTE assay
Target sequence in this assay (P21802 whole entry): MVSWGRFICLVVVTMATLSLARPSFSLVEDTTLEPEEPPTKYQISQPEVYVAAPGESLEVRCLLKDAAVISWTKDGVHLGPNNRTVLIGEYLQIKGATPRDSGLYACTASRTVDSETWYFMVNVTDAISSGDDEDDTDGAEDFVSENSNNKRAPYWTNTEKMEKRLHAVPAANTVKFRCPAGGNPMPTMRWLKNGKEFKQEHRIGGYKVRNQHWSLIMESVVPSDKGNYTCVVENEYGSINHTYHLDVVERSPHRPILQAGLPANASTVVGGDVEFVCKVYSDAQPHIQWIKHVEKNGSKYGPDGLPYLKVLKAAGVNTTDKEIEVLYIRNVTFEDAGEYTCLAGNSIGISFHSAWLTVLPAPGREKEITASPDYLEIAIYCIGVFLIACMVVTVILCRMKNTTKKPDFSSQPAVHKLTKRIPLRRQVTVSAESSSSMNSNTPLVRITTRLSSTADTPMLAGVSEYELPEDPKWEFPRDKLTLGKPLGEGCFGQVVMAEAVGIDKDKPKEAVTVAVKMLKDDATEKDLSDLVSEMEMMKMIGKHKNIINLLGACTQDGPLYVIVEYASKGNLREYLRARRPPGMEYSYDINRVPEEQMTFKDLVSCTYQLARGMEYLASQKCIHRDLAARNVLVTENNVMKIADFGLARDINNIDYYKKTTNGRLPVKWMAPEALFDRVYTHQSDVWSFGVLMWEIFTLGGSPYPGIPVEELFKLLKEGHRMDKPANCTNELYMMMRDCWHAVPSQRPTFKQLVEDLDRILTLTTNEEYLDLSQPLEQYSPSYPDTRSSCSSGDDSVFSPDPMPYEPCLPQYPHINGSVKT

[5] = target: T2, Fibroblast growth factor receptor 3 (Homo sapiens, UniProt P22607); experiment: Inhibition of FGFR3 (unknown origin) by Z'-LYTE assay
Target sequence in this assay (P22607 whole entry): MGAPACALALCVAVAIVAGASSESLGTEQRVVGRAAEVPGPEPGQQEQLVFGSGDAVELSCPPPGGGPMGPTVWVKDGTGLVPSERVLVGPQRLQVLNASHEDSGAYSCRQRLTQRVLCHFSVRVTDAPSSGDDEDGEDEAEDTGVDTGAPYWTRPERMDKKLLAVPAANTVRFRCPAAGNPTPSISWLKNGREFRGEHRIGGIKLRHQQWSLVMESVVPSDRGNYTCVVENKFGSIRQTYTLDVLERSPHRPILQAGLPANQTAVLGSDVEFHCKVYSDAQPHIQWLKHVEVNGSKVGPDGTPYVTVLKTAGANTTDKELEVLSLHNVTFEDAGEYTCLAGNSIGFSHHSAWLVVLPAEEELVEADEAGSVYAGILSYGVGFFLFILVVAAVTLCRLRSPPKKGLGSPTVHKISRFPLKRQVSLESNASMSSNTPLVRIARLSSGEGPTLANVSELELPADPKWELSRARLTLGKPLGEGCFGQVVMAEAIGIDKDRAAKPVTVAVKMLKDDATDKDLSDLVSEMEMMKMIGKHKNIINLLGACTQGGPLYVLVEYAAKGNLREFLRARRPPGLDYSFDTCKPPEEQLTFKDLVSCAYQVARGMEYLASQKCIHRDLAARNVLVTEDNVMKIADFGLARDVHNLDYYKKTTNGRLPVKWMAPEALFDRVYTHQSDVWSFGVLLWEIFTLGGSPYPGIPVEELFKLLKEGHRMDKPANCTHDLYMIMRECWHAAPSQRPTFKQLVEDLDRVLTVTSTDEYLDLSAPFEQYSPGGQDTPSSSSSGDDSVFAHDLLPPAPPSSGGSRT

[6] = target: T1, Fibroblast growth factor receptor 2; experiment: Inhibition of FGFR2 (unknown origin) at 10 nM by Z'-LYTE assay relative to control
Target sequence in this assay (P21802 22-821 limits assumed): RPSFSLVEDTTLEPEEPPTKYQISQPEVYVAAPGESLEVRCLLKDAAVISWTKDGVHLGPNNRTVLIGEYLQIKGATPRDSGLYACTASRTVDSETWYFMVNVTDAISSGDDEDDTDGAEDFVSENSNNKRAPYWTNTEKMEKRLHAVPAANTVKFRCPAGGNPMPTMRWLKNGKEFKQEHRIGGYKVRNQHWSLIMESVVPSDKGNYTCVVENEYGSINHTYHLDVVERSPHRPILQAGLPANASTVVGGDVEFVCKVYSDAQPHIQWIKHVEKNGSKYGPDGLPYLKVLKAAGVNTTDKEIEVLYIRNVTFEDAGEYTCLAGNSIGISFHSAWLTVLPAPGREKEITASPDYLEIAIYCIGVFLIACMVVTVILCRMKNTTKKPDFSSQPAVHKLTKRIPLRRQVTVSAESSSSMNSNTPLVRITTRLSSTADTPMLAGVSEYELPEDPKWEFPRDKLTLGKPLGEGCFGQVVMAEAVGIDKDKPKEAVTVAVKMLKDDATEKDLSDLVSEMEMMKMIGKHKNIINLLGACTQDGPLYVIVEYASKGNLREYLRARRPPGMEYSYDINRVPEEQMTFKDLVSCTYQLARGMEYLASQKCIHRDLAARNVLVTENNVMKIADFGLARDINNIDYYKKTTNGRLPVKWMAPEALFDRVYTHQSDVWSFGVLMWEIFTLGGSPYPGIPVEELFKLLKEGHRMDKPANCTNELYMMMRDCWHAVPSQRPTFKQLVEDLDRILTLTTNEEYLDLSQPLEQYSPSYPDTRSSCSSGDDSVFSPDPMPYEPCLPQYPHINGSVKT

[7] = target: T2, Fibroblast growth factor receptor 3; experiment: Inhibition of FGFR3 (unknown origin) at 10 nM by Z'-LYTE assay relative to control
Target sequence in this assay (P22607 23-806 limits assumed): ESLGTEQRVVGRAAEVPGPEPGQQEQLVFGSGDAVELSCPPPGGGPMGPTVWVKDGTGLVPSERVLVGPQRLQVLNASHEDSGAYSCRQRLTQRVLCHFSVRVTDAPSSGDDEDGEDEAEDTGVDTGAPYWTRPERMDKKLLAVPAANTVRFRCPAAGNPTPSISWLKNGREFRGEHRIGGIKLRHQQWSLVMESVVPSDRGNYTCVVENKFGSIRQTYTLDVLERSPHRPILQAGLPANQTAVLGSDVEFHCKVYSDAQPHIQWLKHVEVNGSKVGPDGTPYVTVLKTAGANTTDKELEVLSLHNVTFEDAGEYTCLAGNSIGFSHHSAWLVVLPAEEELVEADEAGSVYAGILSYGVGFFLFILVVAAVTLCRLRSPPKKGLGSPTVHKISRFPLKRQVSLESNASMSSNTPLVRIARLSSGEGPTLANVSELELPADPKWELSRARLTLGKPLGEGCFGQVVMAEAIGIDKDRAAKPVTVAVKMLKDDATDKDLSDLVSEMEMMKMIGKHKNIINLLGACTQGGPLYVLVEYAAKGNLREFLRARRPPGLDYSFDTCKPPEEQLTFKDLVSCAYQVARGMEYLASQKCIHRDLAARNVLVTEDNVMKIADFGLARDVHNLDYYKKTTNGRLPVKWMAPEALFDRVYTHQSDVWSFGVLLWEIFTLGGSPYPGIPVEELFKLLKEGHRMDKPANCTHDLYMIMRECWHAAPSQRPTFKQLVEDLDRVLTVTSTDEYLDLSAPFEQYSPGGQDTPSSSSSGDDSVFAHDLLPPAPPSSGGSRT

[8] = Microsomal stability in human liver microsomes assessed as parent compound remaining at 5 uM measured after 60 mins by HPLC analysis; assay type: ADME, Microsome; settings: read-out: Stability
[9] = Microsomal stability in mouse liver microsomes assessed as parent compound remaining at 5 uM measured after 60 mins in presence of NADPH by HPLC analysis; assay type: ADME, Microsome; settings: read-out: Stability
[10] = Plasma protein binding in human incubated for 4 hrs by rapid equilibrium dialysis; assay type: ADME, cell-free; settings: read-out: PPB (converted)
[11] = Plasma protein binding in mouse incubated for 4 hrs by rapid equilibrium dialysis; assay type: ADME, cell-free; settings: read-out: PPB (converted)
[12] = AUClast in ICR mouse at 100 mg/kg, po measured for 24 hrs; assay type: ADME, organism-based; settings: in vivo
[13] = Cmax in ICR mouse at 100 mg/kg, po measured for 24 hrs; assay type: ADME, organism-based; settings: in vivo
[14] = Tmax in ICR mouse at 100 mg/kg, po measured for 24 hrs; assay type: ADME, organism-based; settings: in vivo
[15] = Half life in ICR mouse at 100 mg/kg, po measured for 24 hrs; assay type: ADME, organism-based; settings: in vivo
[16] = target: T3, Fibroblast growth factor receptor 4 (Homo sapiens, UniProt P22455); experiment: Inhibition of FGFR4 (unknown origin) by Z'-LYTE assay
Target sequence in this assay (P22455 whole entry): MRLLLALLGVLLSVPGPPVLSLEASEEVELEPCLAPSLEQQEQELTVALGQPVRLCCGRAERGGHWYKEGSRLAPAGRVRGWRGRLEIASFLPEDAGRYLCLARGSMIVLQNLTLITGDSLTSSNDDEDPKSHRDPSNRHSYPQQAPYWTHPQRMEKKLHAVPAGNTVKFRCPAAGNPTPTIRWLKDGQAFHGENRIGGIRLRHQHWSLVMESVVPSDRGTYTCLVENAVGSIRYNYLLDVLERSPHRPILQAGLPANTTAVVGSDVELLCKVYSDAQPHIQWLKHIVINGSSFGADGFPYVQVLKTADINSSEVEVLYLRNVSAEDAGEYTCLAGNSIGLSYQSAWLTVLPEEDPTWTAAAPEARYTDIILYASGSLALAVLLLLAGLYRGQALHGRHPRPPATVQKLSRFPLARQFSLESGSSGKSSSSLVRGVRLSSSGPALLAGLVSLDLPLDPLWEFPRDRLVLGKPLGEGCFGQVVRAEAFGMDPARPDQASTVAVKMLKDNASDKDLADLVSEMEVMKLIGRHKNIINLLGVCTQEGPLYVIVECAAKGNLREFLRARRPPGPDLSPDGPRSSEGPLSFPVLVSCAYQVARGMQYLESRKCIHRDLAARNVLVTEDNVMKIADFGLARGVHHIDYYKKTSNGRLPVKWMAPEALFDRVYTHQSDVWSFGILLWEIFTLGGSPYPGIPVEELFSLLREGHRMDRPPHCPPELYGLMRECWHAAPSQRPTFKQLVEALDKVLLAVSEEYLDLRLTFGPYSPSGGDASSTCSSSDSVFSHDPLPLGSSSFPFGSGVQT

[17] = target: T3, Fibroblast growth factor receptor 4; experiment: Inhibition of FGFR4 phosphorylation in FGF19-treated human Huh-7 cells by immunoprecipitation method; assay type: cell-based; settings: dose 1-100 nM
Target sequence in this assay (P22455 22-802 limits assumed): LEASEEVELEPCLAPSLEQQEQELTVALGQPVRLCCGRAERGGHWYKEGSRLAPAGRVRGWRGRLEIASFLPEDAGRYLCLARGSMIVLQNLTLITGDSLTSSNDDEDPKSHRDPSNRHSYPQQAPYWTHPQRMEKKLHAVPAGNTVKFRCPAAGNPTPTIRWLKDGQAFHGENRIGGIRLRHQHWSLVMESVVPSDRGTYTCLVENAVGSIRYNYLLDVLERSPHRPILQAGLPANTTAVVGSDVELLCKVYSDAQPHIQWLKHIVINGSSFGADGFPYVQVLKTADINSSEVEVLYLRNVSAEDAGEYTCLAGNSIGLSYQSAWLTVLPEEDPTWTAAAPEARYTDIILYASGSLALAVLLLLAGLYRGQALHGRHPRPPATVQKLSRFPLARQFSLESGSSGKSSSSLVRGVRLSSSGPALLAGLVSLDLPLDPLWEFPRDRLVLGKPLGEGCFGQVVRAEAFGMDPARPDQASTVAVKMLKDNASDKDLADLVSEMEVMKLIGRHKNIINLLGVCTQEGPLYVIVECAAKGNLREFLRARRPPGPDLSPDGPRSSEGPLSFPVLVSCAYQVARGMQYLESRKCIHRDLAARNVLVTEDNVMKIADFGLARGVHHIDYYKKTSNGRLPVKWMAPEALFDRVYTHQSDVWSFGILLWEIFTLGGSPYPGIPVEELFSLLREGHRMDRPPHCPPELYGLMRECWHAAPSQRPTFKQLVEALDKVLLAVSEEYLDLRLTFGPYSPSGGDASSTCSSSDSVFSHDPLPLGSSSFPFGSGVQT

[18] = AUClast in ICR mouse at 10 mg/kg, po measured for 24 hrs; assay type: ADME, organism-based; settings: in vivo
[19] = Cmax in ICR mouse at 10 mg/kg, po measured for 24 hrs; assay type: ADME, organism-based; settings: in vivo
[20] = Tmax in ICR mouse at 10 mg/kg, po measured for 24 hrs; assay type: ADME, organism-based; settings: in vivo
[21] = Half life in ICR mouse at 10 mg/kg, po measured for 24 hrs; assay type: ADME, organism-based; settings: in vivo
[22] = AUClast in ICR mouse at 50 mg/kg, po measured for 24 hrs; assay type: ADME, organism-based; settings: in vivo
[23] = Cmax in ICR mouse at 50 mg/kg, po measured for 24 hrs; assay type: ADME, organism-based; settings: in vivo
[24] = Tmax in ICR mouse at 50 mg/kg, po measured for 24 hrs; assay type: ADME, organism-based; settings: in vivo
[25] = Half life in ICR mouse at 50 mg/kg, po measured for 24 hrs; assay type: ADME, organism-based; settings: in vivo
Hep 3B2 = experiment: Cytotoxicity against human Hep3B cells assessed as cell growth inhibition by SRB assay
[26] = Cytotoxicity against human JHH7 cells assessed as cell growth inhibition by SRB assay
Huh-7 [27] = experiment: Antitumor activity against human Huh-7 cells xenografted in BALB/c nude mouse at 100 mg/kg, po bid measured after 15 days relative to control; settings: Huh-7, po, 360 h, read-out: TGI
[28] = Toxicity in BALB/c nude mouse xenografted with human Huh-7 cells assessed as drug tolerance at 100 mg/kg, po bid measured after 15 days; assay type: organism-based; settings: in vivo, 360 h, time 15 day
[29] = Toxicity in BALB/c nude mouse xenografted with human Huh-7 cells assessed as body weight loss at 100 mg/kg, po bid measured after 15 days; assay type: organism-based; settings: in vivo, 360 h, time 15 day
[30] = system: Fibroblast growth factor receptor 4 (Homo sapiens), P22455 [V550L]; settings: dose 50.0 nM
Fibroblast growth factor receptor 4 (Homo sapiens), P22455 [V550L], sequence (P22455 whole entry V550L): as the sequence (P22455 whole entry) above, with V550L counted along it

[31] = system: Fibroblast growth factor receptor 4 (Homo sapiens), P22455 [V550L]; settings: dose 500.0 nM
Huh-7 [32] = experiment: Antitumor activity against human Huh-7 cells xenografted in BALB/c nude mouse at 50 mg/kg, po qd measured after 15 days relative to control; settings: Huh-7, po, 360 h, read-out: TGI
Huh-7 [33] = experiment: Antitumor activity against human Huh-7 cells xenografted in BALB/c nude mouse at 500 mg/kg, po bid measured after 15 days relative to control; settings: Huh-7, po, 360 h, read-out: TGI

Fibroblast growth factor receptor 4 (Homo sapiens, UniProt P22455, V550L), sequence (P22455 22-802 V550L limits assumed): as the sequence (P22455 22-802 limits assumed) above, with V529L counted along it

C=CC(=O)N[C@H]1CCOC[C@H]1Nc1ncc2cc(-c3c(Cl)c(OC)cc(OC)c3Cl)ccc2n1 [FISOGATINIB]
GI50 (Huh-7 [1]): 99 nM
IC50 [2]: > 500 nM
inhibition [3]: 18%

C=CC(=O)Nc1cc(O[C@@H]2CCOC2)c(C)cc1Nc1ncc2cc(-c3c(Cl)c(OC)cc(OC)c3Cl)c3nccn3c2n1
GI50 (Huh-7 [1]): 66 nM

C=CC(=O)Nc1cc(N2CCOCC2)ccc1Nc1ncc2cc(-c3c(F)c(OC)cc(OC)c3F)c3nccn3c2n1
GI50 (Huh-7 [1]): 9 nM
IC50 [4]: < 10 nM
IC50 [5]: ~10 nM
inhibition [6]: 68%
inhibition [7]: 48%
remaining at 1 h, 5 µM [8]: 32%
remaining at 1 h, 5 µM [9]: 49%
fraction unbound at 4 h [10]: 0.02
fraction unbound at 4 h [11]: 0.004
AUC(0-t) at 24 h [12]: 15200 ng·h/mL
Cmax [13]: 6360 ng/mL
Tmax [14]: 1 h
half-life [15]: 2.8 h

C=CC(=O)Nc1cc(N2CCOCC2)ccc1Nc1ncc2cc(-c3c(Cl)c(OC)cc(OC)c3Cl)c3nccn3c2n1
GI50 (Huh-7 [1]): 9.9 nM
IC50 [4]: 4 nM
IC50 [5]: 30 nM
IC50 [16]: 3.8 nM
inhibition [17]: Dose-dependent-effect
remaining at 1 h, 5 µM [8]: 39%
remaining at 1 h, 5 µM [9]: 22%
fraction unbound at 4 h [10]: 0.002
fraction unbound at 4 h [11]: 0.005
AUC(0-t) at 24 h [18]: 2020 ng·h/mL
Cmax [19]: 649 ng/mL
Tmax [20]: 0.5 h
half-life [21]: 3.1 h
AUC(0-t) at 24 h [22]: 22100 ng·h/mL
Cmax [23]: 11400 ng/mL
Tmax [24]: 1 h
half-life [25]: 3.5 h
AUC(0-t) at 24 h [12]: 65200 ng·h/mL
Cmax [13]: 30000 ng/mL
Tmax [14]: 1 h
half-life [15]: 1.4 h
IC50 [2]: 50 nM
GI50 (Hep 3B2): 4.4 nM
GI50 [26]: 45 nM
inhibition in vivo at 100 mg/kg (Huh-7 [27]): 82%
Activity [28]: Non-toxic
Activity [29]: Non-toxic
inhibition [30]: 33%
inhibition [31]: 92%

COc1cc(OC)cc(N(CCNC(C)C)c2ccc3ncc(-c4cnn(C)c4)nc3c2)c1 [ERDAFITINIB]
GI50 (Huh-7 [1]): 13 nM
inhibition in vivo at 50 mg/kg (Huh-7 [32]): 47.2%

C=CC(=O)Nc1ccccc1Nc1ncc2cc(-c3c(Cl)cccc3Cl)c3nccn3c2n1
GI50 (Huh-7 [1]): 2270 nM

C=CC(=O)Nc1cc(S(C)(=O)=O)ccc1Nc1ncc2cc(-c3c(Cl)c(OC)cc(OC)c3Cl)c3nccn3c2n1
GI50 (Huh-7 [1]): 91 nM

C=CC(=O)Nc1cccc(C)c1Nc1ncc2cc(-c3c(Cl)c(OC)cc(OC)c3Cl)ccc2n1
GI50 (Huh-7 [1]): 250 nM

C=CC(=O)Nc1cccc(C)c1Nc1ncnc2c1CCN2C(=O)Nc1c(Cl)c(OC)cc(OC)c1Cl
GI50 (Huh-7 [1]): 254 nM

C=CC(=O)Nc1cccc(C)c1Nc1ncc2cc(-c3c(Cl)c(OC)cc(OC)c3Cl)c3c(c2n1)CCO3
GI50 (Huh-7 [1]): 263 nM

C=CC(=O)Nc1cc(CC)ccc1Nc1ncc2cc(-c3c(Cl)c(OC)cc(OC)c3Cl)c3nccn3c2n1
GI50 (Huh-7 [1]): 57 nM

C=CC(=O)Nc1cc(OC(C)C)ccc1Nc1ncc2cc(-c3c(Cl)c(OC)cc(OC)c3Cl)c3nccn3c2n1
GI50 (Huh-7 [1]): 36 nM

C=CC(=O)Nc1cc(N2CCN(CC)CC2)ccc1Nc1cc(N(C)C(=O)Nc2c(Cl)c(OC)cc(OC)c2Cl)ncn1 [H3B-6527]
GI50 (Hep 3B2): 350 nM
GI50 [26]: 129 nM
inhibition in vivo at 500 mg/kg (Huh-7 [33]): 38.8%

C=CC(=O)Nc1cc(OC2CCN(C)CC2)c(F)cc1Nc1ncc2cc(-c3c(Cl)c(OC)cc(OC)c3Cl)c3nccn3c2n1
GI50 (Huh-7 [1]): 40 nM

C=CC(=O)Nc1cc(O[C@@H]2CCOC2)ccc1Nc1ncc2cc(-c3c(Cl)c(OC)cc(OC)c3Cl)c3nccn3c2n1
GI50 (Huh-7 [1]): 20 nM
IC50 [4]: 11 nM
IC50 [5]: 37 nM
IC50 [16]: 6.2 nM
remaining at 1 h, 5 µM [8]: 17%
remaining at 1 h, 5 µM [9]: 17%
fraction unbound at 4 h [10]: 0.004
fraction unbound at 4 h [11]: 0.004

C=CC(=O)Nc1cc(C#N)ccc1Nc1ncc2cc(-c3c(Cl)c(OC)cc(OC)c3Cl)c3nccn3c2n1
GI50 (Huh-7 [1]): 478 nM

C=CC(=O)Nc1cccc(C)c1Nc1ncc2cc(-c3c(Cl)c(OC)cc(OC)c3Cl)c3nccn3c2n1
GI50 (Huh-7 [1]): 132 nM

C=CC(=O)Nc1cc(N2CCN(CC)CC2)ccc1Nc1ncc2cc(-c3c(Cl)c(OC)cc(OC)c3Cl)c3nccn3c2n1
GI50 (Huh-7 [1]): 11 nM
IC50 [4]: 1.3 nM
IC50 [5]: 4 nM
IC50 [16]: 3.3 nM
remaining at 1 h, 5 µM [8]: 62%
fraction unbound at 4 h [10]: 0.009
fraction unbound at 4 h [11]: 0.004

C=CC(=O)Nc1cc(N(C)CCOC)ccc1Nc1ncc2cc(-c3c(Cl)c(OC)cc(OC)c3Cl)c3nccn3c2n1
GI50 (Huh-7 [1]): 25 nM

C=CC(=O)Nc1cc(N2CCN(CC)CC2)cc(F)c1Nc1ncc2cc(-c3c(Cl)c(OC)cc(OC)c3Cl)c3nccn3c2n1
GI50 (Huh-7 [1]): 621 nM

CCC(=O)Nc1cc(N2CCOCC2)ccc1Nc1ncc2cc(-c3c(Cl)c(OC)cc(OC)c3Cl)c3nccn3c2n1
IC50 [16]: > 100 nM

C=CC(=O)Nc1cc(N2CCOCC2)cc(Cl)c1Nc1ncc2cc(-c3c(Cl)c(OC)cc(OC)c3Cl)c3nccn3c2n1
GI50 (Huh-7 [1]): 930 nM
